# Results reported in US12077503B2, “Substituted cyclic amides and their use as herbicides” (FMC CORPORATION, priority 2015, dated 2024).
# Tests used:
# Format in all cases: in vivo
# [1] = tested on: ryegrass, Italian (Italian ryegrass, Lolium multiflorum); test: Test A preemergence; details: Lolium multiflorum, pre-emergence, 240 h, preemergence, 0 to 100 scale where 0 is no effect and 100 is complete control, read-out: Ryegrass, Italian plant response rating
# Outline: (§1)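 Greenhouse, ~10 d after spray; visual injury vs untreated controls, 0 = no effect, 100 = complete control. Preemergence: directed soil spray over planted seeds. Postemergence: plants 2–10 cm, 1–2 leaf stage. Loam/sand blend. Compound in non-phytotoxic solvent with surfactant.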
# [2] = tested on: giant foxtail (Setaria faberii); test: Test A preemergence; details: Setaria faberi, pre-emergence, 240 h, preemergence, 0 to 100 scale where 0 is no effect and 100 is complete control, read-out: Foxtail, Giant plant response rating
# Outline: as §1
# [3] = tested on: ragweed (common ragweed, Ambrosia elatior); test: Test A preemergence; details: Ambrosia artemisiifolia, pre-emergence, 240 h, preemergence, 0 to 100 scale where 0 is no effect and 100 is complete control, read-out: Ragweed plant response rating
# Outline: as §1
# [4] = tested on: pigweed (Amaranthus retroflexus); test: Test A preemergence; details: Amaranthus retroflexus, pre-emergence, 240 h, preemergence, 0 to 100 scale where 0 is no effect and 100 is complete control, read-out: Pigweed plant response rating
# [5] = tested on: barnyardgrass (Echinochloa crus-galli); test: Test A preemergence; details: Echinochloa crus-galli, pre-emergence, 240 h, preemergence, 0 to 100 scale where 0 is no effect and 100 is complete control, read-out: Barnyardgrass plant response rating
# Outline: as §1
# Kochia (Kochia scoparia) = test: Test A preemergence; details: Bassia scoparia, pre-emergence, 240 h, preemergence, 0 to 100 scale where 0 is no effect and 100 is complete control, read-out: Kochia plant response rating
# Outline: as §1
# [6] = tested on: ryegrass, Italian (Italian ryegrass, Lolium multiflorum); test: Test A postemergence; details: Lolium multiflorum, post-emergence, 240 h, postemergence
# Outline: as §1
# corn (Zea mays) = test: Test A postemergence; details: Zea mays, post-emergence, 240 h, postemergence, read-out: Corn plant response rating
# Outline: as §1
# [7] = tested on: giant foxtail (Setaria faberii); test: Test A postemergence; details: Setaria faberi, post-emergence, 240 h, postemergence, read-out: Foxtail, Giant plant response rating
# Outline: as §1
# [8] = tested on: blackgrass (Alopecurus myosuroides); test: Test A postemergence; details: Alopecurus myosuroides, post-emergence, 240 h, postemergence, read-out: Blackgrass plant response rating
# Outline: as §1
# [9] = tested on: ragweed (common ragweed, Ambrosia elatior); test: Test A postemergence; details: Ambrosia artemisiifolia, post-emergence, 240 h, postemergence
# Outline: as §1
# [10] = tested on: Galium (catchweed bedstraw, Galium aparine); test: Test A postemergence; details: Galium, post-emergence, 240 h, postemergence, read-out: Galium plant response rating
# Outline: as §1
# [11] = tested on: pigweed (Amaranthus retroflexus); test: Test A postemergence; details: Amaranthus retroflexus, post-emergence, 240 h, postemergence
# Outline: as §1
# [12] = tested on: wheat (Triticum aestivum); test: Test A postemergence; details: Triticum aestivum, post-emergence, 240 h, postemergence
# Outline: as §1
# [13] = tested on: barnyardgrass (Echinochloa crus-galli); test: Test A postemergence; details: Echinochloa crus-galli, post-emergence, 240 h, postemergence, read-out: Barnyardgrass plant response rating
# Outline: as §1
# [14] = 125 g ai/ha, visual injury on 0 to 100 scale (0 no effect, 100 complete control), approx. 10 d
# [15] = 500 g ai/ha, 0 to 100 scale, 0 is no effect, 100 is complete control
smiles,measurement,setting,value
O=C1NC[C@H](c2ccc(F)c(OC(F)(F)C(F)F)c2)[C@H]1C(=O)Nc1ccc(F)cc1F (racemic) [Compound 1154],pest or weed control at 125 g/ha,"[1]; 125 g ai/ha, approx. 10 d",30%
same,pest or weed control at 500 g/ha,[1]; 500 g ai/ha,50%
same,pest or weed control at 125 g/ha,"[2]; 125 g ai/ha, approx. 10 d",90%
same,pest or weed control at 500 g/ha,[2]; 500 g ai/ha,90%
same,pest or weed control at 125 g/ha,"[3]; 125 g ai/ha, approx. 10 d",20%
same,pest or weed control at 500 g/ha,[3]; 500 g ai/ha,90%
same,pest or weed control at 125 g/ha,"[4]; 125 g ai/ha, approx. 10 d",60%
same,pest or weed control at 500 g/ha,[4]; 500 g ai/ha,80%
same,pest or weed control at 125 g/ha,"[5]; 125 g ai/ha, approx. 10 d",90%
same,pest or weed control at 500 g/ha,[5]; 500 g ai/ha,90%
same,pest or weed control at 125 g/ha,"Kochia (Kochia scoparia); 125 g ai/ha, approx. 10 d",70%
same,pest or weed control at 500 g/ha,Kochia (Kochia scoparia); 500 g ai/ha,90%
same,pest or weed control at 125 g/ha,"[6]; 125 g ai/ha, visual injury vs untreated controls after approx. 10 d, 0 = no effect, 100 = complete control, read-out: Ryegrass, Italian plant response rating (0 to 100 scale)",30%
same,pest or weed control at 500 g/ha,"[6]; 500 g ai/ha, 0 to 100 scale, 0 is no effect, 100 is complete control, read-out: Ryegrass, Italian plant response rating",50%
same,plant injury at 125 g/ha,corn (Zea mays); [14],90%
same,plant injury at 500 g/ha,corn (Zea mays); [15],90%
same,pest or weed control at 125 g/ha,[7]; [14],90%
same,pest or weed control at 500 g/ha,[7]; [15],60%
same,pest or weed control at 125 g/ha,[8]; [14],70%
same,pest or weed control at 500 g/ha,[8]; [15],90%
same,pest or weed control at 125 g/ha,"[9]; 125 g ai/ha, visual injury vs untreated controls after approx. 10 d, 0 = no effect, 100 = complete control, read-out: Ragweed plant response rating (0 to 100 scale)",0%
same,pest or weed control at 500 g/ha,"[9]; 500 g ai/ha, 0 to 100 scale, 0 is no effect, 100 is complete control, read-out: Ragweed plant response rating",40%
same,pest or weed control at 125 g/ha,[10]; [14],60%
same,pest or weed control at 500 g/ha,[10]; [15],70%
same,pest or weed control at 125 g/ha,"[11]; 125 g ai/ha, visual injury vs untreated controls after approx. 10 d, 0 = no effect, 100 = complete control, read-out: Pigweed plant response rating (0 to 100 scale)",60%
same,pest or weed control at 500 g/ha,"[11]; 500 g ai/ha, 0 to 100 scale, 0 is no effect, 100 is complete control, read-out: Pigweed plant response rating",70%
same,plant injury at 125 g/ha,"[12]; 125 g ai/ha, visual injury vs untreated controls after approx. 10 d, 0 = no effect, 100 = complete control, read-out: Wheat plant response rating (0 to 100 scale)",40%
same,plant injury at 500 g/ha,"[12]; 500 g ai/ha, 0 to 100 scale, 0 is no effect, 100 is complete control, read-out: Wheat plant response rating",80%
same,pest or weed control at 125 g/ha,[13]; [14],70%
same,pest or weed control at 500 g/ha,[13]; [15],90%
